Legend:
Format in all cases: cell-based
[1] = system: type I collagen synthesis in human-derived fibroblasts; experiment: Type I collagen synthesis in human-derived fibroblasts (PICP EIA kit); details: for Increase rate (%) of collagen synthesis: relative to negative control; for Amount of type I collagen production: negative control 151.4
Description: A sample was added to a human-derived fibroblast culture medium to evaluate the effect of promoting type I collagen synthesis at the cellular level. The synthesized collagen was quantified using a Procollagen Type I C-Peptide Enzyme Immunoassay kit (PICP EIA kit). In order to measure the amount of collagen synthesis, a compound of Formula 1 was added to the fibroblast culture medium (Dulbecco's Modified Eagle Medium (DMEM)) so that the final concentration of compound of Formula 1 was 0.1 ppm, 1 ppm, or 10 ppm in each medium, and Genistein was also added to the fibroblast culture medium (Dulbecco's Modified Eagle Medium (DMEM)) so that final concentration of Genistein was 0.1 ppm, 1 ppm, or 10 ppm. After culturing for 48 hours, and then the culture medium was taken, and, by using the PICP EIA kit, the degree of type I collagen synthesis at each concentration was measured at 450 nm using a spectrophotometer. In order to compare the effect, the culture medium of fibroblasts without sample treatment was used as a negative control, and 10 ng/ml TGF-β was used as a positive control, and the degrees of collagen synthesis therein were measured in the same manner as for testing an added sample. A rate of increase in collagen synthesis was calculated as a ratio of the amount of collagen production relative to that of the negative control, and the results are shown in Table 2. The experiment was performed three times for each sample, and averages of measurements were obtained.

HAS2 = HAS2 mRNA expression in human keratinocytes (real-time quantitative PCR); details: HaCaT, negative control normalized to 1.0
Description: (§1) Human keratinocytes (HaCaT) were dispensed into a 6-well cell culture plate at 2×10^5 cells/well and cultured for 24 hours in a DMEM medium containing 10% fetal bovine serum (FBS). The medium was replaced with a DMEM medium without 10% FBS and calcium (Ca^2+), and the cultured cells were treated with the compound of Chemical Formula 1, which had been diluted with a medium, for 24 hours. After the 24 hours had passed, the cells were recovered and then washed with a cold phosphate buffer solution (PBS), and total RNA was extracted using an RNeasy mini kit (Qiagen, Germany). A reverse transcription reaction was performed using RNA and a cDNA Synthesis kit (PhileKorea, Korea). The synthesized cDNA was diluted with water after being quantified, and the same amount thereof was used for all reactions. HAS2, HAS3, and AQP3 primers from a TaqMan® Universal Master Mix II and TaqMan® Gene Expression Assays (Thermo Fisher, USA) were used. Real-time quantitative polymerase chain reaction (PCR) was carried out using a StepOnePlus® Real-time PCR System (Applied Biosystems, USA). The experimental results were obtained through calculation performed by a ΔΔCt method based on a housekeeping gene glyceraldehyde-3-phosphate dehydrogenase (GAPDH). The levels of HAS2, HAS3, and AQP3 gene expression in each sample were quantified based on the mRNA expression level (normalized to 1.0) of the negative control to which the sample was not added, and the results are shown in Table 3. As a positive control, 10 ng/ml EGF recombinant human protein (Life Technologies, USA) was used.

HAS3 = HAS3 mRNA expression in human keratinocytes (real-time quantitative PCR); details: HaCaT, negative control normalized to 1.0
Description: as §1

AQP3 = AQP3 mRNA expression in human keratinocytes (real-time quantitative PCR); details: HaCaT, negative control normalized to 1.0
Description: as §1

A. niger = experiment: Minimum inhibitory concentration, serial dilution method; details: PDB medium, about 10^6/well
Description: (§2) This experiment was carried out by a serial dilution method and a method of measuring a minimum inhibitory concentration (MIC), using an MHB2 medium (for bacteria) or a PDB medium (for fungi). The bacteria or fungi were inoculated at about 10^6/well.

C. albicans = experiment: as above; details: PDB medium, about 10^6/well
Description: as §2

E. coli = experiment: as above; details: MHB2 medium, about 10^6/well
Description: as §2

P. aeruginosa = experiment: as above; details: MHB2 medium, about 10^6/well
Description: as §2

Pityrosporum ovale = experiment: as above; details: about 10^6/well
Description: as §2

S. aureus = experiment: as above; details: MHB2 medium, about 10^6/well
Description: as §2

[2] = system: Wnt/β-catenin signaling pathway; experiment: Wnt/β-catenin signaling pathway activation, TOPflash luciferase reporter in human dermal papilla cells; details: untreated control = 100
Description: The effect of the compound of Chemical Formula 1 on the activation of the Wnt/β-catenin signaling pathway was investigated using TOPflash (T-cell factor reporter plasmid) Kit (Millipore, USA). Human dermal papilla cells were inoculated into a 24-well plate at 2×10^5/well, cultured for 24 hours, treated with the compound of Chemical Formula 1 so that the concentration was 10 μg/ml, and then additionally cultured for 15 hours, and firefly luciferase activity was subsequently measured using a dual luciferase assay kit (Promega, USA).
In order to accurately measure the luciferase activity, the experiment was performed three times for each sample, an increase rate (%) was calculated as a ratio of activity relative to that of a control was calculated, and the results are shown in Table 5. The negative control was an untreated group. As a positive control, 6-bromoindirubin-3′-oxime (BIO) was used, and BIO is a material known to inhibit GSK-3 in the Wnt signaling system.

dermal papilla cells = experiment: Dermal papilla cell proliferation (CCK-8); details: 100 ppm, CCK-8 on day 5, Control (DMEM) = 1.00
Description: This experiment was performed using the following media 1) to 3):
1) DMEM (10% FBS, 1% P/S)
2) Depletion medium: 5% charcoal-stripped, FBS-containing, phenol red-free DMEM
3) Serum-free (SF) medium: DMEM (1% P/S).
On days 0 to 5, the following various experiments were performed to confirm a dermal papilla cell proliferation effect.
Day 0: At 10 a.m., cells were seeded (5,000 cells/well)
Day 1: At 10 a.m., after changing the depletion medium, cells were cultured for 24 hours.
Day 2: At 10 a.m., CCK-8 was measured (average initial value: 0.586) before the cells were treated with a sample, and subsequently, cells were treated with a sample.

B-16 mouse melanoma cell = experiment: Total melanin amount in mouse melanoma cell culture (brightening effect); details: B16, 72 h, B-16 melanoma cells cultured three days, vs negative control (DMSO), read-out: Inhibition rate (%) of melanin production
Description: In order to evaluate a brightening effect according to inhibition of melanogenesis, an extract was added to a mouse melanoma cell (B-16 mouse melanoma cell) culture, and the total amount of melanin was measured according to a method described in Lotan R. et al. (Cancer Res. 40:3345-3350, 1980). For this experiment, toxicity with respect to the mouse melanoma cells was first evaluated, and the brightening effect was evaluated at a concentration not inducing toxicity. Dimethyl sulfoxide (DMSO) was used as a negative control, and arbutin was used as a positive control.
Specifically, A compound of Formula 1 was added to a medium of each sample so that the final concentration of the compound of Formula 1 is 1 ppm, 10 ppm, 100 ppm, or 500 ppm, and Daidzein was also added to the medium so that the final concentration of Daidzein is 1 ppm, 10 ppm, 100 ppm, or 500 ppm. Arbutin was added to the medium so that the final concentration was 100 ppm. In each of the mediums, melanoma cells were cultured for three days. Subsequently, the cells were treated with trypsin, detached from the culture plate, and centrifuged, and then melanin was extracted. The detached cells were boiled for 10 minutes by adding 1 ml of a sodium hydroxide solution (1 N concentration) so that melanin was dissolved, and by measuring an absorbance at 400 nm using a spectrophotometer, the amount of melanin production was measured.
The amount of melanin was measured by a method of indicating absorbance per unit cell count (1×10^6 cells), The amount of melanin production in each experimental group with respect to the negative control was calculated as a relative value, and the value obtained by subtracting the amount of melanin production in each experimental group from 100% of the melanin production amount in the negative control group was expressed as the inhibition rate (%). The experiment was performed three times for each sample, and averages of measurements were obtained.

O=c1c(-c2ccc(O)cc2)coc2cc(O)cc(O)c12 [Genistein]
Increase rate (%) of collagen synthesis ([1]; 0.1 ppm, 48 hours): 2.53%
Amount of type I collagen production ([1]; 0.1 ppm, 48 hours): 155.24 ng/mL
Increase rate (%) of collagen synthesis ([1]; 1 ppm, 48 hours): 4.85%
Amount of type I collagen production ([1]; 1 ppm, 48 hours): 158.75 ng/mL
Increase rate (%) of collagen synthesis ([1]; 10 ppm, 48 hours): 8.59%
Amount of type I collagen production ([1]; 10 ppm, 48 hours): 165.93 ng/mL
Increased HAS2 mRNA amount (HAS2; 10 ppm, 24 hours): 1.06
Increased HAS2 mRNA amount (HAS2; 100 ppm, 24 hours): 2.74
Increased HAS3 mRNA amount (HAS3; 10 ppm, 24 hours): 2.86
Increased HAS3 mRNA amount (HAS3; 100 ppm, 24 hours): 3.34
Increased AQP3 mRNA amount (AQP3; 10 ppm, 24 hours): 1.09
Increased AQP3 mRNA amount (AQP3; 100 ppm, 24 hours): 2.47
Minimum inhibitory concentration (%) A. niger (A. niger): 0.2%
Minimum inhibitory concentration (%) C. albicans (C. albicans): 0.08%
Minimum inhibitory concentration (%) E. coli (E. coli): 0.1%
Minimum inhibitory concentration (%) P. aeruginosa (P. aeruginosa): 0.07%
Minimum inhibitory concentration (%) Pityrosporum ovale (Pityrosporum ovale): 0.0005%
Minimum inhibitory concentration (%) S. aureus (S. aureus): 0.03%
Increase rate (%) of luciferase activity ([2]; 10 μg/ml, 15 hours): 140%
Average (ratio) dermal papilla cell proliferation (dermal papilla cells): 1.10

O=C1Nc2cc(Br)ccc2/C1=C1/Nc2ccccc2/C1=N\O [BIO, 6-bromoindirubin-3′-oxime]
Increase rate (%) of luciferase activity ([2]; 1 μM, positive control): 153%

OC[C@H]1O[C@@H](Oc2ccc(O)cc2)[C@H](O)[C@@H](O)[C@@H]1O [Arbutin, arbutin]
inhibition at 100 ppm (B-16 mouse melanoma cell): 56%

COc1ccc(-c2coc3cc(O[C@@H]4O[C@H](CO[C@@H]5OC[C@@H](O)[C@H](O)[C@H]5O)[C@@H](O)[C@H](O)[C@H]4O)c(OC)c(O)c3c2=O)cc1 [Chemical Formula 1, kakkalide]
inhibition at 1 ppm (B-16 mouse melanoma cell): 35.3%
inhibition at 10 ppm (B-16 mouse melanoma cell): 48%
inhibition at 100 ppm (B-16 mouse melanoma cell): 57.6%
inhibition at 500 ppm (B-16 mouse melanoma cell): 68.4%
Increase rate (%) of collagen synthesis ([1]; 0.1 ppm, 48 hours): 4.19%
Amount of type I collagen production ([1]; 0.1 ppm, 48 hours): 157.74 ng/mL
Increase rate (%) of collagen synthesis ([1]; 1 ppm, 48 hours): 12.56%
Amount of type I collagen production ([1]; 1 ppm, 48 hours): 170.41 ng/mL
Increase rate (%) of collagen synthesis ([1]; 10 ppm, 48 hours): 16.07%
Amount of type I collagen production ([1]; 10 ppm, 48 hours): 175.72 ng/mL
Increased HAS2 mRNA amount (HAS2; 10 ppm, 24 hours): 2.28
Increased HAS2 mRNA amount (HAS2; 100 ppm, 24 hours): 6.64
Increased HAS3 mRNA amount (HAS3; 10 ppm, 24 hours): 3.97
Increased HAS3 mRNA amount (HAS3; 100 ppm, 24 hours): 5.23
Increased AQP3 mRNA amount (AQP3; 10 ppm, 24 hours): 1.75
Increased AQP3 mRNA amount (AQP3; 100 ppm, 24 hours): 4.17
Minimum inhibitory concentration (%) A. niger (A. niger): 0.1%
Minimum inhibitory concentration (%) C. albicans (C. albicans): 0.05%
Minimum inhibitory concentration (%) E. coli (E. coli): 0.05%
Minimum inhibitory concentration (%) P. aeruginosa (P. aeruginosa): 0.05%
Minimum inhibitory concentration (%) Pityrosporum ovale (Pityrosporum ovale): 0.0003%
Minimum inhibitory concentration (%) S. aureus (S. aureus): 0.01%
Increase rate (%) of luciferase activity ([2]; 10 μg/ml, 15 hours): 160%
Average (ratio) dermal papilla cell proliferation (dermal papilla cells): 1.34

TGF-β
Increase rate (%) of collagen synthesis ([1]; 10 ng/ml, positive control): 13.84%
Amount of type I collagen production ([1]; 10 ng/ml, positive control): 172.35 ng/mL

O=c1c(-c2ccc(O)cc2)coc2cc(O)ccc12 [Daidzein]
inhibition at 1 ppm (B-16 mouse melanoma cell): 18.7%
inhibition at 10 ppm (B-16 mouse melanoma cell): 16.4%
inhibition at 100 ppm (B-16 mouse melanoma cell): 20.8%
inhibition at 500 ppm (B-16 mouse melanoma cell): 30.2%

EGF: EGF recombinant human protein (Life Technologies, USA), positive control
Increased HAS2 mRNA amount (HAS2; 10 ng/ml, positive control): 16.42
Increased HAS3 mRNA amount (HAS3; 10 ng/ml, positive control): 5.24
Increased AQP3 mRNA amount (AQP3; 10 ng/ml, positive control): 1.09

zinc pyrithione
Minimum inhibitory concentration (%) A. niger (A. niger): 0.02%
Minimum inhibitory concentration (%) C. albicans (C. albicans): 0.02%
Minimum inhibitory concentration (%) E. coli (E. coli): 0.002%
Minimum inhibitory concentration (%) P. aeruginosa (P. aeruginosa): 0.002%
Minimum inhibitory concentration (%) Pityrosporum ovale (Pityrosporum ovale): 0.0002%
Minimum inhibitory concentration (%) S. aureus (S. aureus): 0.001%
